Calls of active or inactive are those of the source. The calls are words filed in the database; no cut-off is given here.
Tests used:
[1] = Selectivity index, ratio of IC50 for human L02 cells to IC50 for human HePAD38 cells
L02 [2] = assay: Cytotoxicity against human L02 cells assessed as cell viability measured after 72 hrs by MTT assay; format: cell-based; conditions: L02, 72 h
[3] = Antiproliferative activity against human HePAD38 cells assessed as inhibition of cell proliferation measured after 72 hrs by MTT assay; format: functional, cell-based; conditions: HePAD38, 72 h
[4] = Selectivity index, ratio of IC50 for human CCD 19Lu cells to IC50 for human HePAD38 cells
A549 = assay: Antiproliferative activity against human A549 cells assessed as inhibition of cell proliferation measured after 72 hrs by MTT assay; format: functional, cell-based; conditions: A549, 72 h
[5] = Selectivity index, ratio of IC50 for human CCD 19Lu cells to IC50 for human HepG2 cells; format: toxicity; conditions: CCD 19Lu cells versus HepG2 cells, read-out: Ratio IC50
HepG2 [6] = assay: Antiproliferative activity against human HepG2 cells assessed as inhibition of cell proliferation measured after 72 hrs by MTT assay; format: functional, cell-based; conditions: HepG2, 72 h
BEAS-2B = assay: Antiproliferative activity against human BEAS-2B cells assessed as inhibition of cell proliferation measured after 72 hrs by MTT assay; format: functional, cell-based
[7] = Selectivity index, ratio of IC50 for human L02 cells to IC50 for human HepG2 cells; format: toxicity; conditions: L02 cells versus HepG2 cells, read-out: Ratio IC50
HeLa [8] = assay: Inhibition of human SERCA in human HeLa cells assessed as alteration of calcium dynamics at 1 uM preincubated with compound C measured after 2 hrs by FLIPR calcium assay; format: cell-based
HeLa [9] = assay: Inhibition of human SERCA in human HeLa cells assessed as depletion of SERCA-dependent calcium storage at 1 uM preincubated with TG by FLIPR calcium assay; format: cell-based
HepG2 [10] = assay: Induction of apoptosis in human HepG2 cells assessed as early apoptotic cells at 1 uM measured after 24 hrs by Annexin-V/PI staining based flow cytometry assay (reference value: 0.181%); format: functional
L02 [11] = assay: Induction of apoptosis in human L02 cells assessed as necrotic cells at 1 uM measured after 24 hrs by Annexin-V/PI staining based flow cytometry assay (reference value: 0.848%); format: cell-based; conditions: l02, 24 h
HepG2 [12] = assay: Induction of apoptosis in human HepG2 cells assessed as late apoptotic cells at 1 uM measured after 24 hrs by Annexin-V/PI staining based flow cytometry assay (reference value: 0.016%); format: functional
[13] = Induction of apoptosis in human HePAD38 cells assessed as necrotic cells at 1 uM measured after 24 hrs by Annexin-V/PI staining based flow cytometry assay (reference value: 0.903%); format: functional
[14] = Induction of apoptosis in human HePAD38 cells assessed as viable cells at 1 uM measured after 24 hrs by Annexin-V/PI staining based flow cytometry assay (reference value: 98.9%); format: functional; conditions: read-out: Activity
L02 [15] = assay: Induction of apoptosis in human L02 cells assessed as late apoptotic cells at 1 uM measured after 24 hrs by Annexin-V/PI staining based flow cytometry assay (reference value: 0.133%); format: cell-based; conditions: l02, 24 h
HeLa [16] = assay: Inhibition of human SERCA in human HeLa cells assessed as alteration of calcium dynamics at 1 uM measured by FLIPR calcium assay; format: cell-based
[17] = Induction of apoptosis in human HePAD38 cells assessed as early apoptotic cells at 1 uM measured after 24 hrs by Annexin-V/PI staining based flow cytometry assay (reference value: 0.158%); format: functional
[18] = Induction of apoptosis in human HePAD38cells assessed as late apoptotic cells at 1 uM measured after 24 hrs by Annexin-V/PI staining based flow cytometry assay (reference value: 0.032%); format: functional, HePAD38
HepG2 [19] = assay: Induction of apoptosis in human HepG2 cells assessed as necrotic cells at 1 uM measured after 24 hrs by Annexin-V/PI staining based flow cytometry assay (reference value: 0.725%); format: functional
L02 [20] = assay: Induction of apoptosis in human L02 cells assessed as early apoptotic cells at 1 uM measured after 24 hrs by Annexin-V/PI staining based flow cytometry assay (reference value: 1.49%); format: cell-based; conditions: l02, 24 h
[21] = Induction of apoptosis in human L02 cells assessed as viable cells at 1 uM measured after 24 hrs by Annexin-V/PI staining based flow cytometry assay (reference value: 97.5%); format: cell-based; conditions: read-out: Activity
HepG2 [22] = assay: Induction of apoptosis in human HepG2 cells assessed as viable cells at 1 uM measured after 24 hrs by Annexin-V/PI staining based flow cytometry assay (reference value: 99.1%); format: functional; conditions: read-out: Activity

SMILES | Ratio IC50 [1] | IC50 (L02 [2]) [µM] | IC50 [3] [µM] | Ratio IC50 [4] | IC50 (A549) [µM] | selectivity ratio [5] | IC50 (HepG2 [6]) [µM] | IC50 (BEAS-2B) [µM] | selectivity ratio [7] | further results
CC1=C(O)C(=O)C=C2C1=CC=C1[C@@]2(C)CC[C@@]2(C)[C@@H]3C[C@](C)(C(=O)NC(CC(=O)NC(CCC(=O)OC(C)(C)C)C(=O)OC(C)(C)C)C(=O)OC(C)(C)C)CC[C@]3(C)CC[C@]12C (stereo not given in full) | 7.27 | 30.2 | 4.15 | 2.28 | 19.3 | 1.07 | 8.78 | 3.22 | 3.43 | 
CC1=C(O)C(=O)C=C2C1=CC=C1[C@@]2(C)CC[C@@]2(C)[C@@H]3C[C@](C)(C(=O)O)CC[C@]3(C)CC[C@]12C [CELASTROL] | 0.42 | 0.78 | 1.85 | 0.48 | 2.83 | 0.96 | 0.94 | 0.454 | 0.82 | inhibition (HeLa [8]): Active; inhibition (HeLa [9]): Active; Activity (HepG2 [10]): 8.7%; Activity (L02 [11]): 0.823%; Activity (HepG2 [12]): 10%; Activity [13]: 9.47%; viability at 1 µM [14]: 75.3%; Activity (L02 [15]): 15.5%; inhibition (HeLa [16]): Active; Activity [17]: 4.73%; Activity [18]: 10.5%; Activity (HepG2 [19]): 1.61%; Activity (L02 [20]): 12.9%; viability at 24 h, 1 µM [21]: 70.8%; viability at 1 µM (HepG2 [22]): 79.6%
CC1=C(O)C(=O)C=C2C1=CC=C1[C@@]2(C)CC[C@@]2(C)[C@@H]3C[C@](C)(C(=O)NC(CCC(=O)NC(CCC(=O)OC(C)(C)C)C(=O)OC(C)(C)C)C(=O)OC(C)(C)C)CC[C@]3(C)CC[C@]12C (stereo not given in full) | 2.01 | 9.55 | 4.74 | 12 | 6.19 | 13.4 | 4.27 | 38.6 | 2.23 | inhibition (HeLa [8]): Active; inhibition (HeLa [9]): Active; Activity (HepG2 [10]): 1.55%; Activity (L02 [11]): 1.64%; Activity (HepG2 [12]): 11%; Activity [13]: 13.7%; viability at 1 µM [14]: 80.3%; Activity (L02 [15]): 5.44%; inhibition (HeLa [16]): Active; Activity [17]: 1.85%; Activity [18]: 4.17%; Activity (HepG2 [19]): 7.33%; Activity (L02 [20]): 6.2%; viability at 24 h, 1 µM [21]: 86.7%; viability at 1 µM (HepG2 [22]): 80.2%
CC1=C(O)C(=O)C=C2C1=CC=C1[C@@]2(C)CC[C@@]2(C)[C@@H]3C[C@](C)(C(=O)NC(CC(=O)OC(C)(C)C)C(=O)OC(C)(C)C)CC[C@]3(C)CC[C@]12C (stereo not given in full) |  | 15.4 | 11.8 |  | 4.92 |  | 3.56 | 3.72 |  | 
CC1=C(O)C(=O)C=C2C1=CC=C1[C@@]2(C)CC[C@@]2(C)[C@@H]3C[C@](C)(C(=O)NC(CC(=O)NC(CC(=O)OC(C)(C)C)C(=O)OC(C)(C)C)C(=O)OC(C)(C)C)CC[C@]3(C)CC[C@]12C (stereo not given in full) | 4.21 | 19.1 | 4.54 | 1.07 | 9.85 | 0.61 | 7.98 | 2.18 | 2.39 | 
CC1=C(O)C(=O)C=C2C1=CC=C1[C@@]2(C)CC[C@@]2(C)[C@@H]3C[C@](C)(C(=O)NC(CCC(=O)N(CC(=O)OC(C)(C)C)C(=O)OC(C)(C)C)C(=O)OC(C)(C)C)CC[C@]3(C)CC[C@]12C (stereo not given in full) | 0.91 | 2.34 | 2.55 | 3.4 | 3.4 | 5.96 | 1.54 | 1.33 | 1.52 | 
COC(=O)CCNC(=O)[C@]1(C)CC[C@]2(C)CC[C@]3(C)C4=CC=C5C(=CC(=O)C(O)=C5C)[C@]4(C)CC[C@@]3(C)[C@@H]2C1 |  | 0.55 |  |  | 1.91 |  | 1.04 | 0.32 |  | 
CC1=C(O)C(=O)C=C2C1=CC=C1[C@@]2(C)CC[C@@]2(C)[C@@H]3C[C@](C)(C(=O)NC(CC(=O)OC(C)(C)C)C(=O)NC(CCC(=O)OC(C)(C)C)C(=O)OC(C)(C)C)CC[C@]3(C)CC[C@]12C (stereo not given in full) | 2.67 | 45.4 | 17 | 0.61 | 37.7 | 0.51 | 20.3 | 6.87 | 2.23 | 
CC1=C(O)C(=O)C=C2C1=CC=C1[C@@]2(C)CC[C@@]2(C)[C@@H]3C[C@](C)(C(=O)NCCCNC(=O)OC(C)(C)C)CC[C@]3(C)CC[C@]12C |  | 3.27 |  |  | 4.88 |  | 1.95 | 0.57 |  | 
CC1=C(O)C(=O)C=C2C1=CC=C1[C@@]2(C)CC[C@@]2(C)[C@@H]3C[C@](C)(C(=O)NC(CC(=O)OC(C)(C)C)C(=O)NC(CC(=O)OC(C)(C)C)C(=O)OC(C)(C)C)CC[C@]3(C)CC[C@]12C (stereo not given in full) | 12.75 | 5.61 | 0.44 | 5 | 2.75 | 1.81 | 1.22 | 0.786 | 4.6 | inhibition (HeLa [8]): Active; inhibition (HeLa [9]): Active; Activity (HepG2 [10]): 3.45%; Activity (L02 [11]): 2.14%; Activity (HepG2 [12]): 14.5%; Activity [13]: 5.58%; viability at 1 µM [14]: 73.6%; Activity (L02 [15]): 11.7%; inhibition (HeLa [16]): Active; Activity [17]: 2.27%; Activity [18]: 18.5%; Activity (HepG2 [19]): 12.4%; Activity (L02 [20]): 3.62%; viability at 24 h, 1 µM [21]: 82.6%; viability at 1 µM (HepG2 [22]): 69.7%
CC1=C(O)C(=O)C=C2C1=CC=C1[C@@]2(C)CC[C@@]2(C)[C@@H]3C[C@](C)(C(=O)NCCCNC(=O)[C@@]4(C)CC[C@@]5(C)CC[C@@]6(C)C7=CC=C8C(=CC(=O)C(O)=C8C)[C@@]7(C)CC[C@]6(C)[C@H]5C4)CC[C@]3(C)CC[C@]12C |  | 1.65 |  |  | 2.45 |  | 1.17 | 0.41 |  | 
CC1=C(O)C(=O)C=C2C1=CC=C1[C@@]2(C)CC[C@@]2(C)[C@@H]3C[C@](C)(C(=O)NC(CCC(=O)OC(C)(C)C)C(=O)OC(C)(C)C)CC[C@]3(C)CC[C@]12C (stereo not given in full) |  | 4.23 | 1.54 |  | 4.2 |  | 2.52 | 0.62 |  | 
